Source: patent US20240158394A1, “NEK7 INHIBITORS” (Halia Therapeutics, Inc., priority 2022, published 2024)

Target: full-length recombinant human NEK7 (Homo sapiens (Human), UniProt Q8TDX7)
Assay: NEK7 Enzymatic Assay
Type: biochemical
Conditions: casein substrate, [33P]-ATP, 2 hours at room temperature
Procedure: Casein substrate (from bovine milk, hydrolyzed and partially dephosphorylated mixture of α, β and κ caseins, obtained from Sigma Aldrich, catalogue #C4765, diluted in distilled water to a final concentration of 1 mg/mL) and full-length recombinant human NEK7 (expressed by baculovirus in Sf9 insect cells using a N-terminal GST tag, obtained from SignalChem, catalogue #N09-10G, 0.1 μg/μL) were mixed in assay buffer (20 mM HEPES pH 7.5, 10 mM MgCl2, 1 mM EGTA, 0.02% Brij35, 0.02 mg/mL BSA, 0.1 mM Na3VO4, 2 mM DTT, 1% DMSO). Compounds of interest (serial 3-fold dilution in DMSO from 10 μM to 0.5 nM) or vehicle (1% DMSO) were dispensed into the kinase reaction mixture by Acoustic technology (Echo550; nanoliter range). After incubation at room temperature for 20 minutes, the kinase reaction was initiated by addition of [^33P]-ATP (specific activity 10 μCi/μL) and the mixture was incubated at room temperature for 2 hours. The reaction was then stopped by spotting the reaction mixture on strips of phosphocellulose P81 paper. Following washing, the radioactivity of the P81 paper was measured and kinase activity data were expressed as the percent remaining kinase activity in test samples compared to vehicle reactions. IC50 values and curve fits were obtained using Prism (GraphPad Software).

Sequence of full-length recombinant human NEK7 (Q8TDX7 whole entry): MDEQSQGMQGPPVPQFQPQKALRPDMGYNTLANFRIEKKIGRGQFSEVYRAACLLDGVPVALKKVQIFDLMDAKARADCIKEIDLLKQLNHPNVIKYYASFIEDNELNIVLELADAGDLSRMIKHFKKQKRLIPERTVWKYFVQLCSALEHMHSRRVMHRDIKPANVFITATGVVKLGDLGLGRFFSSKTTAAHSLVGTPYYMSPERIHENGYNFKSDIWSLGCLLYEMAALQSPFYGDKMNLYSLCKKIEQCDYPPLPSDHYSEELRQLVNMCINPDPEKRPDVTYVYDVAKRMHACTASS

| IC50 | SMILES |
| --- | --- |
| > 2000 nM | Nc1ncnc2c1c(-c1ccc(NC(=O)Nc3cc(C4(C(F)(F)F)CC4)no3)c3ccccc13)cn2C1CC1 [Example I-1, 1-(4-(4-amino-7-cyclopropyl-7H-pyrrolo[2,3-d]pyrimidin-5-yl)naphthalen-1-yl)-3-(3-(1-(trifluoromethyl)cyclopropyl)-isoxazol-5-yl)urea] |
| > 2000 nM | CC(C)(C)c1cc(NC(=O)Nc2ccc(-c3cn(C4CC4)c4ncnc(N)c34)c3cccnc23)on1 [Example I-2, 1-(5-(4-amino-7-cyclopropyl-7H-pyrrolo[2,3-d]pyrimidin-5-yl)quinolin-8-yl)-3-(3-(tert-butyl)isoxazol-5-yl)urea] |
| > 2000 nM | Nc1ncnc2c1c(-c1ccc(NC(=O)Nc3cc(C4(C(F)(F)F)CC4)no3)c3ncccc13)cn2C1CC1 [Example I-3, 1-(5-(4-amino-7-cyclopropyl-7H-pyrrolo[2,3-d]pyrimidin-5-yl)quinolin-8-yl)-3-(3-(1-(trifluoromethyl)cyclopropyl)-isoxazol-5-yl)urea] |
| < 200 nM | CC(C)(C)c1cc(NC(=O)Nc2ccc(-c3cn(C4CC4)c4ncnc(N)c34)c3ccncc23)on1 [Example I-5, 1-(5-(4-amino-7-cyclopropyl-7H-pyrrolo[2,3-d]pyrimidin-5-yl)isoquinolin-8-yl)-3-(3-(tert-butyl)isoxazol-5-yl)urea] |
| 200 to 500 nM | CC1(c2cc(NC(=O)Nc3ccc(-c4cn(C5CC5)c5ncnc(N)c45)c4ccncc34)on2)CC1 [Example I-6, 1-(5-(4-amino-7-cyclopropyl-7H-pyrrolo[2,3-d]pyrimidin-5-yl)isoquinolin-8-yl)-3-(3-(1-methylcyclopropyl)isoxazol-5-yl)urea] |
| 500 to 2000 nM | Nc1ncnc2c1c(-c1ccc(NC(=O)Nc3cc(C4(C(F)(F)F)CC4)no3)c3cnccc13)cn2C1CC1 [Example I-7, 1-(5-(4-amino-7-cyclopropyl-7H-pyrrolo[2,3-d]pyrimidin-5-yl)isoquinolin-8-yl)-3-(3-(1-(trifluoromethyl)cyclopropyl)-isoxazol-5-yl)urea] |
| < 200 nM | CN1CCC(Oc2ccc(NC(=O)Nc3ccc(-c4cn(C5CC5)c5ncnc(N)c45)c4ccncc34)cc2C(F)(F)F)CC1 [Example I-10, 1-(5-(4-amino-7-cyclopropyl-7H-pyrrolo[2,3-d]pyrimidin-5-yl)isoquinolin-8-yl)-3-(4-((1-methylpiperidin-4-yl)oxy)-3-(trifluoromethyl)phenyl)urea] |
| 200 to 500 nM | Cc1ccc(-n2nc(C(C)(C)C)cc2NC(=O)Nc2ccc(-c3cn(C4CC4)c4ncnc(N)c34)n3ccnc23)cc1 [Example I-12, 1-(5-(4-amino-7-cyclopropyl-7H-pyrrolo[2,3-d]pyrimidin-5-yl)imidazo[1,2-a]pyridin-8-yl)-3-(3-(tert-butyl)-1-(p-tolyl)-1H-pyrazol-5-yl)urea] |
| 500 to 2000 nM | CC(C)(C)c1cc(NC(=O)Nc2ccc(-c3cn(C4CC4)c4ncnc(N)c34)n3ccnc23)n(-c2ccc(Cl)cc2)n1 [Example I-13, 1-(5-(4-amino-7-cyclopropyl-7H-pyrrolo[2,3-d]pyrimidin-5-yl)imidazo[1,2-a]pyridin-8-yl)-3-(3-(tert-butyl)-1-(4-chlorophenyl)-1H-pyrazol-5-yl)urea] |
| > 2000 nM | Cc1cc(NC(=O)Nc2ccc(-c3cn(C4CC4)c4ncnc(N)c34)n3ccnc23)on1 [Example I-14, 1-(5-(4-amino-7-cyclopropyl-7H-pyrrolo[2,3-d]pyrimidin-5-yl)imidazo[1,2-a]pyridin-8-yl)-3-(3-methylisoxazol-5-yl)-urea] |
| 200 to 500 nM | CCc1cc(NC(=O)Nc2ccc(-c3cn(C4CC4)c4ncnc(N)c34)n3ccnc23)on1 [Example I-15, 1-(5-(4-amino-7-cyclopropyl-7H-pyrrolo[2,3-d]pyrimidin-5-yl)imidazo[1,2-a]pyridin-8-yl)-3-(3-ethylisoxazol-5-yl)-urea] |
| < 200 nM | CC(C)c1cc(NC(=O)Nc2ccc(-c3cn(C4CC4)c4ncnc(N)c34)n3ccnc23)on1 [Example I-16, 1-(5-(4-amino-7-cyclopropyl-7H-pyrrolo[2,3-d]pyrimidin-5-yl)imidazo[1,2-a]pyridin-8-yl)-3-(3-isopropylisoxazol-5-yl)urea] |
| < 200 nM | CC1(c2cc(NC(=O)Nc3ccc(-c4cn(C5CC5)c5ncnc(N)c45)n4ccnc34)on2)CC1 [Example I-18, 1-(5-(4-amino-7-cyclopropyl-7H-pyrrolo[2,3-d]pyrimidin-5-yl)imidazo[1,2-a]pyridin-8-yl)-3-(3-(1-methylcyclo-propyl)isoxazol-5-yl)urea] |
| 200 to 500 nM | CC1(c2cc(NC(=O)Nc3ccc(-c4cn(C5CC5)c5ncnc(N)c45)n4ccnc34)on2)CCC1 [Example I-19, 1-(5-(4-amino-7-cyclopropyl-7H-pyrrolo[2,3-d]pyrimidin-5-yl)imidazo[1,2-a]pyridin-8-yl)-3-(3-(1-methylcyclobutyl)-isoxazol-5-yl)urea] |
| < 200 nM | CC(C)(F)c1cc(NC(=O)Nc2ccc(-c3cn(C4CC4)c4ncnc(N)c34)n3ccnc23)on1 [Example I-20, 1-(5-(4-amino-7-cyclopropyl-7H-pyrrolo[2,3-d]pyrimidin-5-yl)imidazo[1,2-a]pyridin-8-yl)-3-(3-(2-fluoropropan-2-yl)isoxazol-5-yl)urea] |
| < 200 nM | CC(C)(c1cc(NC(=O)Nc2ccc(-c3cn(C4CC4)c4ncnc(N)c34)n3ccnc23)on1)C(F)(F)F [Example I-21, 1-(5-(4-amino-7-cyclopropyl-7H-pyrrolo[2,3-d]pyrimidin-5-yl)imidazo[1,2-a]pyridin-8-yl)-3-(3-(1,1,1-trifluoro-2-methylpropan-2-yl)isoxazol-5-yl)urea] |
| < 200 nM | Nc1ncnc2c1c(-c1ccc(NC(=O)Nc3cc(C4(C(F)(F)F)CCC4)no3)c3nccn13)cn2C1CC1 [Example I-23, 1-(5-(4-amino-7-cyclopropyl-7H-pyrrolo[2,3-d]pyrimidin-5-yl)imidazo[1,2-a]pyridin-8-yl)-3-(3-(1-(trifluoromethyl)-cyclobutyl)isoxazol-5-yl)urea] |
| > 2000 nM | Cc1cc(NC(=O)Nc2ccc(-c3cn(C4CC4)c4ncnc(N)c34)n3ccnc23)no1 [Example I-24, 1-(5-(4-amino-7-cyclopropyl-7H-pyrrolo[2,3-d]pyrimidin-5-yl)imidazo[1,2-a]pyridin-8-yl)-3-(5-methylisoxazol-3-yl)urea] |
| 200 to 500 nM | CC(C)c1cc(NC(=O)Nc2ccc(-c3cn(C4CC4)c4ncnc(N)c34)n3ccnc23)no1 [Example I-26, 1-(5-(4-amino-7-cyclopropyl-7H-pyrrolo[2,3-d]pyrimidin-5-yl)imidazo[1,2-a]pyridin-8-yl)-3-(5-isopropylisoxazol-3-yl)urea] |
| < 200 nM | CC(C)(C)c1cc(NC(=O)Nc2ccc(-c3cn(C4CC4)c4ncnc(N)c34)n3ccnc23)no1 [Example I-27, 1-(5-(4-amino-7-cyclopropyl-7H-pyrrolo[2,3-d]pyrimidin-5-yl)imidazo[1,2-a]pyridin-8-yl)-3-(5-(tert-butyl)isoxazol-3-yl)urea] |
| < 200 nM | CC(C)(c1cc(NC(=O)Nc2ccc(-c3cn(C4CC4)c4ncnc(N)c34)n3ccnc23)no1)C(F)(F)F [Example I-31, 1-(5-(4-amino-7-cyclopropyl-7H-pyrrolo[2,3-d]pyrimidin-5-yl)imidazo[1,2-a]pyridin-8-yl)-3-(5-(1,1,1-trifluoro-2-methylpropan-2-yl)isoxazol-3-yl)urea] |
